Experimental data as given in article PMC4078515 (Pharmaceuticals, 2014).
Where “and” joins values, the source holds several entries; their conditions need not be identical. Equal entries are not always repeated. Where two headings read alike, the source gives them in different places.

Key:
in vivo [1] = assay type: in vivo; conditions: guinea pig; for concentration at 20 min / Kp at 20 min: Hartley, in vivo
Description: Guinea pig plasma was defrosted and centrifuged.
Guinea pig brain was defrosted. […] Supernatant (250 µL) was added to ACN 750 µL.
Brain levels were determined on a separate group.

in vivo [2] = conditions: guinea pig; for Cmax / Tmax / AUC(0-t) / half-life: male, Hartley albino
Description: (§1) The column used for chromatographic separation was a Waters Xbridge C18, 2.1 × 50 mm 2.5 µm at 30 °C. Mobile phase A: 10:40:50, 1.0% ammonium hydroxide solution in water, adjusted to pH 10.5 with formic acid: water: ACN. Mobile phase B: 10:90, 1.0% ammonium hydroxide solution in water, adjusted to pH 10.5 with formic acid: ACN. Flow rate: 250 µL/min, injection volume: 10 µL, run time: 10 min. Gradient, 100% A hold for 1 min, 0% B to 100% B over 4 min, hold 100% B for 4.5 min, 0% B at 9.51 min and equilibrate for 0.5 min.
(§2) The LTQ-XL ion trap mass spectrometer was coupled to the Accela LC system via an electrospray ionization (ESI) probe. The capillary temperature was maintained at 350 °C, sheath gas flow rate 50 arbitrary units, auxiliary gas flow rate 5 arbitrary units, sweep gas flow rate 0 arbitrary units, source voltage 3.20 kV, source current 100 µA, capillary voltage 43.00 V and tube lens 100 V. Compounds were detected in positive ion mode using selected ion monitoring (SIM). Hydroxybupropion was detected at (M+H)^+ = 256.1099, RT = 1.0 min, Rac-erythro-hydrobupropion (M+H)^+ = 242.1306, RT = 2.3 min, Rac-threo-hydrobupropion (M+H)^+ = 242.1306, RT 2.8 min, bupropion (M+H)^+ = 240.1150, RT = 2.0 min, N-methylbupropion (M+H)^+ = 254.1306, RT = 4.9 min, Rac-N-methyl-erythro-hydrobupropion (M+H)^+ = 256.1463, RT = 4.1 min and Rac-N-methyl-threo-hydrobupropion (M+H)^+ = 256.1463, RT = 4.6 min. The optimum detector conditions were found by tuning the instrument to be most sensitive for bupropion’s most abundant ion at 240 (m/z).
After acclimatization, male Hartley albino guinea-pigs, weighing 280–320 g were deprived of food for 16 h with free access to water (food withdrawal at 04:00 PM the day before). On the day of the experiment five guinea pigs per group were weighed then injected through the abdominal wall or fed by oral gavage with bupropion given at 40 mg/kg intraperitoneum. A second group of five guinea pigs were weighed then injected through the abdominal wall or fed by oral gavage with N-methyl bupropion given at 42 mg/Kg intraperitoneum.
Guinea pigs were placed under isoflurane anesthesia and approximately 100 µL of blood was collected using hematocrit capillaries or by cardiac puncture (terminal) into dry heparin/Li containing tubes before administration and then at five time points post-administration (0, 20, 40, 60, 120 and 180 min) for intraperitoneal study and seven time-points post administration (0, 20, 40, 60, 120, 180, 240 and 360 min) for oral study. After blood was collected, the tubes were inverted several times and placed on ice. The samples were centrifuged within 30 min maximum after sampling at 2205 g at 4 °C for 10 min. Plasma was transferred to polypropylene tubes and frozen with minimal delay at approximately −70 °C.
(§3) Guinea pig plasma was defrosted and centrifuged. Then, plasma (50 µL) was added to a 1.5 mL microcentrifuge tube. ACN (200 µL) was added and the mixture was vortex mixed. The resulting solution was centrifuged at 8000 g for 10 min. Supernatant (100 µL) was added to HCl (100 µL, 0.001 M). The solution was vortex mixed and added to a 100 µL micro-insert for LC-MS analysis.
Pharmacokinetic calculations were determined on Graphpad Prism software. Michaelis-Menten parameters were determined by non-linear regression analysis. The pharmacokinetic data was interpreted using a one-compartment model where the amount of drug present in the body at any given time t [A(t)] is described in Equation (1).
Drug concentration: A(t) = Cp(t)V(1) where Cp(t) and V are the drug concentration in the plasma and the apparent volume of distribution respectively. At least five sample time points were collected including at least one time point before tmax and three time points during the terminal phase for half-life estimation.

in vivo [3] = conditions: Hartley, guinea pig, ip
Description: as §1, §2
An additional group of guinea-pigs were used for brain collection at a single time point (20 min). The day of the experiment four guinea pigs per group were weighed then injected through the abdominal wall with bupropion given at 40 mg/kg IP and N-methylbupropion given at 42 mg/Kg IP. At time 20 min post-injection, the animals were decapitated and the brain extracted and rinsed in cold physiological saline. The whole brain was fast frozen on dry ice and placed into pre-labeled vials and stored at approximately −70 °C (deep frozen).>
as §3
Guinea pig brain was defrosted. The whole brain was weighed into a beaker and 0.01 M HCl (20 mL) was added. The mixture was homogenized for 3 min on level 6 and allowed to settle for 10 min. An aliquot of the resulting suspension was centrifuged at 10,000 g for 10 min. Supernatant (250 µL) was added to ACN 750 µL. The mixture was centrifuged at 10,000 g for 10 min. 200 µL of the supernatant was added to 800 µL water. The clear solution was vortex mixed and analyzed by LC-MS.

[4] = pH dependence, cited from earlier work
[5] = system: norepinephrine transport (NET); design: method as in preceding paper (paper 1 of this series); conditions: in vitro; ref preceding paper (paper 1 of this series); cited from earlier work
[6] = N-demethylation of N-methylbupropion to bupropion, substrate saturation study; assay type: in vitro ADME; conditions: 0.1 mg/mL guinea pig S9 liver fraction, 50–1000 μM, 20 min, 37 °C, n = 3
Description: Guinea pig S9 liver fraction, NADPH regenerating solutions A and B were thawed rapidly to 37 °C, then kept on wet ice until ready for use. A number of different concentration substrate solutions were prepared were the maximum concentration of DMSO was 1%, and the concentration of guinea pig S9 liver fraction, NADP regenerating system solution B and phosphate buffer was fixed. After incubation for 5 min, NADP regenerating system solution A was added and the metabolism was initiated. Final volume was 100 μL. The tube was inverted twice and vortex mixed. The final concentrations in this solution was 50–1000 μM prodrug, 0.1 mg/mL guinea-pig S9 liver fraction, 1.3 mM NADP^+, 0.4 U/mL glucose-6-phosphate dehydrogenase and 1.0% DMSO. This solution was incubated for 20 min at 37 °C. The reaction was quenched by addition of 100 μL of ACN. […] The supernatant was analysed by LC-MS analysis.
Pharmacokinetic calculations were determined on Graphpad Prism software.
In selecting a guinea pig animal model for an in vivo study, it was prudent to first verify if an in vitro guinea pig model would carry out the same metabolic transformations. […] N-methylbupropion and bupropion concentrations were determined by LC-MS. […] Other unknown minor metabolites of N-methylbupropion were also detected but were not quantified at this stage. These were determined during the in vivo stage, discussed below.

[7] = system: dopamine active transport (DAT); design: method as in preceding paper (paper 1 of this series); conditions: in vitro; ref preceding paper (paper 1 of this series); cited from earlier work
[8] = 20 min post dose of 42 mg/Kg N-methyl bupropion via oral gavage, read-out: Brain levels
[9] = 20 min post dose of 42 mg/Kg N-methyl bupropion via oral gavage, read-out: Brain/plasma ratio
[10] = 20 min post dose of 42 mg/Kg N-methyl bupropion via oral gavage, read-out: Plasma levels
[11] = ip, 42 mg/kg, Mean Cmax ± SD, plasma analyte after N-Methylbupropion dosed at 42 mg/Kg IP, n = 5
[12] = ip, 42 mg/kg, tmax, plasma analyte after N-Methylbupropion dosed at 42 mg/Kg IP, n = 5
[13] = 20 min post dose of 40 mg/Kg bupropion via oral gavage, read-out: Brain levels
[14] = 20 min post dose of 40 mg/Kg bupropion via oral gavage, read-out: Brain/plasma ratio
[15] = 20 min post dose of 40 mg/Kg bupropion via oral gavage, read-out: Plasma levels
[16] = ip, 40 mg/kg, Cmax, plasma analyte after dosing bupropion 40 mg/Kg IP
[17] = ip, 40 mg/kg, tmax, plasma analyte after dosing bupropion 40 mg/Kg IP

Row | Structure (SMILES) | concentration at 20 min (in vivo [1]; [8]) [ng/g] | Kp at 20 min (in vivo [1]; [9]) | concentration at 20 min (in vivo [1]; [10]) [ng/mL] | Cmax (in vivo [2]; [11]) [ng/mL] | Tmax (in vivo [2]; [12]) [min] | Kp at 20 min (in vivo [3]; 42 mg/kg) | AUC(0-t) (in vivo [2]; ip, 40 mg/kg) [ng·h/mL] | half-life (in vivo [2]; ip, 40 mg/kg) [min] | Cmax (in vivo [2]; ip, 40 mg/kg, Mean Cmax ± SD) [ng/mL] | Kp at 20 min (in vivo [3]; 40 mg/kg) | concentration at 20 min (in vivo [1]; [13]) [ng/g] | Kp at 20 min (in vivo [1]; [14]) | concentration at 20 min (in vivo [1]; [15]) [ng/mL] | Cmax (in vivo [2]; [16]) [ng/mL] | Tmax (in vivo [2]; [17]) [min] | other results
1 | C[C@H]([C@H](O)c1cccc(Cl)c1)N(C)C(C)(C)C (racemic) [N-Me THB, Rac-N-methyl-threo-hydrobupropion] | 570 | 14.2 | 40 | 80 ± 20 | 19.8 | 12.6 |  |  |  |  |  |  |  |  |  | 
2 | C[C@H]1NC(C)(C)CO[C@]1(O)c1cccc(Cl)c1 (relative stereo) [BupOH, hydroxybupropion] |  |  |  | 720 ± 140 | 60 | 7.61 | 2330 | 408 | 950 ± 170 | 6.3 |  |  |  |  |  | Kp at 20 min (in vivo [1]; po, 40 mg/kg): 0.5; concentration at 20 min (in vivo [1]; po, 40 mg/kg): 370 ng/g and 730 ng/mL; Kp at 20 min (in vivo [1]; po, 42 mg/kg): 0.4; concentration at 20 min (in vivo [1]; po, 42 mg/kg): 220 ng/g and 550 ng/mL; Tmax (in vivo [2]; in vivo): 60 min; Tmax (in vivo [2]; ip, 40 mg/kg): 39.6 min
3 | CC(NC(C)(C)C)C(=O)c1cccc(Cl)c1 (stereo not drawn) [Bup, Bupropion] | 460 | 9.2 | 50 | 380 ± 90 | 19.8 | 17.1 |  |  |  | 11.2 | 430 | 4.78 | 90 | 869 ± 190 | 20 | stability of freebase ([4]; aqueous): suffers from hydrolysis and oxidation at pH > 5; sample stability in plasma ([4]; plasma samples, ref 14,15 (supplement)): stable at low pH; Cmax (in vivo [2]; ip, 40 mg/kg, Mean Cmax ± SD, plasma analyte after Bupropion dosed at 40 mg/Kg IP, n = 5): 870 ± 190 ng/mL; Tmax (in vivo [2]; ip, 40 mg/kg, tmax, plasma analyte after Bupropion dosed at 40 mg/Kg IP, n = 5): 19.8 min
4 | CC(C(=O)c1cccc(Cl)c1)N(C)C(C)(C)C (stereo not drawn) [N-Me Bup, N-methylbupropion] |  |  | 20 | 180 ± 80 | 19.8 | 20.2 |  |  |  |  |  |  |  |  |  | activity at NET compared to bupropion [5]: lower activity; Brain/plasma ratio (in vivo [1]; 20 min post dose of 42 mg/Kg N-methyl bupropion via oral gavage): <LOQ; Brain levels (in vivo [1]; 20 min post dose of 42 mg/Kg N-methyl bupropion via oral gavage, listed as N-MeBup, 42 mg/kg): <LOQ; Brain levels (in vivo [1]; 20 min post dose of 42 mg/Kg N-methyl bupropion via oral gavage, listed as N-methylbupropion, 42 mg/kg): below the limit of quantitation; t½ (in vivo [2]; plasma analyte after N-Methylbupropion dosed at 42 mg/Kg via oral gavage, n = 5): <LOQ; Vmax [6]: 419.2 ± 13.65 pmol/min/mg S9; activity at DAT compared to bupropion [7]: lower activity
5 | C[C@@H](NC(C)(C)C)[C@H](O)c1cccc(Cl)c1 [THB, threo-hydrobupropion] | 620 | 1.15 | 540 | 970 ± 280 | 60 | 12.1 | 2860 | 198 | 1220 ± 310 | 6.54 | 970 | 1.17 | 830 | 1230 ± 307 | 20 | Tmax (in vivo [2]; in vivo, 42 mg/Kg): 60 min; Tmax (in vivo [2]; ip, 40 mg/kg, tmax): 19.8 min
